From article PMC2833169, “Anti-malarial activity of a non-piperidine library of next-generation quinoline methanols” (Malaria Journal, 2010)
Values after ≈ are worked out from the molar mass of the structure shown. Like-named read-outs stand apart in the source and are kept apart here.

Key:
[1] = test system: P. falciparum strain W2; experiment: labeled hypoxanthine susceptibility assay, P. falciparum W2; format: cell-based, Plasmodium falciparum; conditions: Plasmodium falciparum
Procedure: (§1) The in vitro activities of quinoline methanols against P. falciparum strains W2, D6, TM91C235, and TM90C2A were evaluated using the traditional labeled hypoxanthine assay of Desjardins et al as modified by Milhous et al. These four P. falciparum strains were selected since they have various levels of resistance to conventional anti-malarials.

[2] = test system: P. falciparum strain D6; experiment: labeled hypoxanthine susceptibility assay, P. falciparum D6; format: cell-based, Plasmodium falciparum; conditions: Plasmodium falciparum
Procedure: as §1

[3] = test system: P. falciparum strain TM91C235; experiment: labeled hypoxanthine susceptibility assay, P. falciparum TM91C235; format: cell-based, Plasmodium falciparum; conditions: Plasmodium falciparum
Procedure: as §1

[4] = test system: P. falciparum strain TM90C2A; experiment: labeled hypoxanthine susceptibility assay, P. falciparum TM90C2A; format: cell-based, Plasmodium falciparum
Procedure: as §1

[5] = in vitro; conditions: mouse
Procedure: (§2) General cytotoxicity was assessed by first determining LC50 's against a rodent macrophage (RAW) cell line using the 3-(4,5-dimethylthiazole-2-yl)-2,5-diphenyltetrazolium bromide (MTT) assay as described in one of our earlier studies. This screen was conducted to identify compounds that may require de-selection due to generalized toxicity. […] In vitro neurocytotoxicity was assessed by determining LC50s against primary mouse neurons using the MTT assay as described previously. Inhibition of the A2A and A1 receptors was determined at 200 nM in duplicate by Caliper Biosciences (Hanover, Maryland).

[6] = in vitro; conditions: dog, MDCK-MDR1, pH 7.4
Procedure: (§3) For this reason, the apparent permeability of selected compounds across MDR1-transfected MDCK cell monolayers was determined. This assay is an in vitro surrogate of the blood-brain barrier.
(§4) Permeability was determined by Absorption Systems (Exton, PA). MDR1-MDCK cell monolayers were grown to confluence on collagen-coated, microporous, polycarbonate membranes in 12-well Costar Transwell plates. […] The permeability assay buffer was Hanks Balanced Salt Solution containing 10 mM HEPES and 15 mM glucose at a pH of 7.4. A known p-glycoprotein inhibitor cyclosporin A (CSA) was also added to the assay buffer at 10 μM. Bovine serum albumin (1%) was added to the receiver well. The dosing solution concentrations of the test compounds were 5.0 μM in the assay buffer. All cell monolayers were first pre-incubated for 30 minutes with assay buffer. After 30 minutes, the buffer was removed, replaced with fresh buffer, and time was recorded as 0. […] Cell monolayers were dosed on the apical side (A-to-B) or basolateral side (B-to-A) and incubated at 37°C with 5% CO2 in a humidified incubator. After 2 hours, aliquots were taken from the receiver chambers. Samples were taken from the donor chamber at 0 and 2 hours. Each determination was performed in duplicate. The lucifer yellow flux was also measured for each monolayer to ensure no damage was inflicted to the cell monolayers during the flux period. All samples were assayed by LC/MS/MS using electrospray ionization.
(§5) Apparent permeability in the apical (A-B direction), PappA-B, and percent recovery are reported. Apparent permeability is a measure of the rate of transport across the cell monolayer. Percent recovery refers to the amount of compound recoverable at the end of the assay. Low recovery may indicate non-specific binding to assay plates, instability or accumulation in the cell pellet.
(§6) The apparent permeability, Papp, and percent recovery were calculated as follows:
(§7) Papp = (dCr/dt) × Vr/(A × C0) (1)
(§8) Percent Recovery = 100 × ((Vr × Cr^final) + (Vd × Cd^final))/(Vd × […]) (2)

[7] = test system: MDR1-transfected MDCK cell monolayers; experiment: in vitro
Procedure: as §3, §4, §5, §6, §7, §8

[8] = metabolic stability in mouse liver microsomes; format: in vitro ADME
Procedure: (§9) Interesting compounds were also submitted for drug-drug interaction and metabolic stability assays. Low IC50s against specific cytochrome P450 isoforms may indicate the potential for a harmful drug interaction to occur in vivo with substrates of that isoform. A lack of metabolic stability in vitro may indicate potential metabolic instability in vivo, and, therefore, a shorter half-life. Drug interaction potential was evaluated in vitro using BD Gentest (Franklin Lakes, NJ) CYP450 inhibition kits as recommended by the manufacturer. Metabolic stability assessments were conducted using in vitro liver microsomes. […] The reaction is started with the addition of 1 U/mL glucose-6-phosphate dehydrogenase G6PD. The mixture is incubated on a shaking platform at 37°C, and aliquots are taken and quenched with the addition of an equal volume of cold acetonitrile at 0, 10, 20, 30, and 60 min. Samples are centrifuged at 3700 rpm for […] at 20°C to remove debris. Sample quantification is carried out by LC/MS, and metabolic half-life is calculated by log plots of the total ion chromatograph area remaining.

[9] = in vitro; conditions: mouse; remark: listed apart in the source
Procedure: as §2

[10] = biological target: T1, A2A receptor (Homo sapiens, UniProt P29274); experiment: inhibition of the A2A receptor at 200 nM; format: binding; conditions: read-out: % A2A inhibition at 200 nM
T1 construct: Caliper Biosciences (contract screen)
T1 sequence (P29274 whole entry): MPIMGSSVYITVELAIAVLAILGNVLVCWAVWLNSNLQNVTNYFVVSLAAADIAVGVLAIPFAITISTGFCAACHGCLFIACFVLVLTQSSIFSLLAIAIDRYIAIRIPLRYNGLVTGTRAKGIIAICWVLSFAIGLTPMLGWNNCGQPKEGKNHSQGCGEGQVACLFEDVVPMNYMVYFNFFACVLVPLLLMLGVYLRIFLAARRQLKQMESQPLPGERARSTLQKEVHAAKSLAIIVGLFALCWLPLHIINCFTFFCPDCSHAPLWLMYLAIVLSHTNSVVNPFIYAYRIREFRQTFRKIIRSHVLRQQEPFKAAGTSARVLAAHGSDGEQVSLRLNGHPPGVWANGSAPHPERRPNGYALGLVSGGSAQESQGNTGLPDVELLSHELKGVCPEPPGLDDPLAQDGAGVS
Procedure: as §2

[11] = biological target: T2, A1 receptor (Homo sapiens, UniProt P30542); experiment: inhibition of the A1 receptor at 200 nM; format: binding; conditions: duplicate
T2 construct: Caliper Biosciences (contract screen)
T2 sequence (P30542 1-326): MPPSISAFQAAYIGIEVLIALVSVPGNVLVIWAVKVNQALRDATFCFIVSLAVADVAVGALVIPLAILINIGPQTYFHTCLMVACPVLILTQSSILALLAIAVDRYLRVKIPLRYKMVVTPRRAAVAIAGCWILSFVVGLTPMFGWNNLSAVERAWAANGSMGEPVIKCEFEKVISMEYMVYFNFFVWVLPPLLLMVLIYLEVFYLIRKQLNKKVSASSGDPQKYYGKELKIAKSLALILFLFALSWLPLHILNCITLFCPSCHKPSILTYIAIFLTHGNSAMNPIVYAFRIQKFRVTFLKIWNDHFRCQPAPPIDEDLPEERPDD
Procedure: as §2

[12] = test system: rodent macrophage (RAW) cell line; experiment: cells; conditions: Mus musculus, Macrophage, read-out: Macrophage IC50
Procedure: as §2

[13] = biological target: T3, CYP450 1A2 (Homo sapiens, UniProt P05177); experiment: CYP450 inhibition kit (drug-drug interaction), 1A2; format: biochemical
T3 construct: purchased BD Gentest (Franklin Lakes, NJ)
T3 sequence (P05177 1-516): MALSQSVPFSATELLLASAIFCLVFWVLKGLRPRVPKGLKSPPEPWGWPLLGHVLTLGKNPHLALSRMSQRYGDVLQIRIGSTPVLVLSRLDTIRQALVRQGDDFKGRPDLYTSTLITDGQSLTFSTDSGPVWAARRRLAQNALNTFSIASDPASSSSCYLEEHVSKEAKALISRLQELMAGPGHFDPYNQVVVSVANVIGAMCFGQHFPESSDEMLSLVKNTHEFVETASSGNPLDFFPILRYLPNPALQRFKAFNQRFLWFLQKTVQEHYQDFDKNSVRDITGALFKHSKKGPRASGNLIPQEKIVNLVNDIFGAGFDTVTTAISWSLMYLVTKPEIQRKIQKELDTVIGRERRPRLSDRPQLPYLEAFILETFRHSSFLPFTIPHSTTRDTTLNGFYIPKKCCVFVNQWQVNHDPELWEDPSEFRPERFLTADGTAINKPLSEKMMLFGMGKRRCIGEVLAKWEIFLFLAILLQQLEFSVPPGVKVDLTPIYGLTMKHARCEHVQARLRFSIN
Procedure: as §9, with “Low” for “Interesting compounds were also submitted for drug-drug interaction and metabolic stability assays. Low”

[14] = biological target: T4, CYP450 2C9 (Homo sapiens, UniProt P11712); experiment: CYP450 inhibition kit (drug-drug interaction), 2C9; format: biochemical
T4 construct: purchased BD Gentest (Franklin Lakes, NJ)
T4 sequence (P11712 whole entry): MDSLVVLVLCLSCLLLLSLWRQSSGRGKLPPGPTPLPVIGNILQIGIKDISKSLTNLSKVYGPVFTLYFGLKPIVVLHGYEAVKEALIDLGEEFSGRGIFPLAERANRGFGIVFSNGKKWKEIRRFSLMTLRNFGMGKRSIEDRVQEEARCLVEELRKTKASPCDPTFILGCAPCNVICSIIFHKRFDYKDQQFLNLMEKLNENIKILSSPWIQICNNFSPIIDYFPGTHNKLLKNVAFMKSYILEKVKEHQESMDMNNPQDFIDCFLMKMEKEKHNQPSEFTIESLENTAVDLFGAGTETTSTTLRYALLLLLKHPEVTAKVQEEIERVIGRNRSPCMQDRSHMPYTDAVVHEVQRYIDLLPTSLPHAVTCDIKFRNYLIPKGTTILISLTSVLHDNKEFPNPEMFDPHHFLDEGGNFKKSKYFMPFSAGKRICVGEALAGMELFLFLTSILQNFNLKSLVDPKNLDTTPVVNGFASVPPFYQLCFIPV
Procedure: as §9, with “Low” for “Interesting compounds were also submitted for drug-drug interaction and metabolic stability assays. Low”

[15] = biological target: T5, CYP450 2C19 (Homo sapiens, UniProt P33261); experiment: CYP450 inhibition kit (drug-drug interaction), 2C19; format: biochemical
T5 construct: purchased BD Gentest (Franklin Lakes, NJ)
T5 sequence (P33261 whole entry): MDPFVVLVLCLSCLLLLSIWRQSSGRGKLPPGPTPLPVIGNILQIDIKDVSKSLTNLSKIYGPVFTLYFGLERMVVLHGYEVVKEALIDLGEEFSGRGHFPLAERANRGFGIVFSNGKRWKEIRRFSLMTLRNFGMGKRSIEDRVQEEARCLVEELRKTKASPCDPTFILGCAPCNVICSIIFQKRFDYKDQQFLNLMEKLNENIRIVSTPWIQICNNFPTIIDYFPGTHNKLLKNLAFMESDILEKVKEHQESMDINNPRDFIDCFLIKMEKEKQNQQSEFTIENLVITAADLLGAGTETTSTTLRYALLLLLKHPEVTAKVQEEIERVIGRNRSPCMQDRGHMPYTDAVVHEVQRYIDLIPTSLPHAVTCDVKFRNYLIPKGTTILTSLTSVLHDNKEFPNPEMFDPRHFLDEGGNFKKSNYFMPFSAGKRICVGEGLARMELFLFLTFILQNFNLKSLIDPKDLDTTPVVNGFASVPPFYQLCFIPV
Procedure: as §9, with “Low” for “Interesting compounds were also submitted for drug-drug interaction and metabolic stability assays. Low”

[16] = biological target: T6, CYP450 2D6 (Homo sapiens, UniProt P10635); experiment: CYP450 inhibition kit (drug-drug interaction), 2D6; format: biochemical
T6 construct: purchased BD Gentest (Franklin Lakes, NJ)
T6 sequence (P10635 whole entry): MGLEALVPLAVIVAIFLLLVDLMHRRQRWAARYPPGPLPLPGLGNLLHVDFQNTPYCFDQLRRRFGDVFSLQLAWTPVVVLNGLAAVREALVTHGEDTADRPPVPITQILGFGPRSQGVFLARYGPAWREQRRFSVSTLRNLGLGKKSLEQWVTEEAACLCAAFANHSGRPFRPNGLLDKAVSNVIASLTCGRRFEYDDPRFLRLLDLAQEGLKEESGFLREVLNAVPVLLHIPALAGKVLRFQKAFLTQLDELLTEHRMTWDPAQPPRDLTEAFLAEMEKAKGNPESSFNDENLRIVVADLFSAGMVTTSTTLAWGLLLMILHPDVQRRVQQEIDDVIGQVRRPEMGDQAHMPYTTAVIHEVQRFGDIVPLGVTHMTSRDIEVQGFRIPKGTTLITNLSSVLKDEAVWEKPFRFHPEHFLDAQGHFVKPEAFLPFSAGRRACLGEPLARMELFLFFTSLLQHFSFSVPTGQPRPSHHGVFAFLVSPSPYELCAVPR
Procedure: as §9, with “Low” for “Interesting compounds were also submitted for drug-drug interaction and metabolic stability assays. Low”

[17] = biological target: T7, CYP450 3A4 (Homo sapiens, UniProt P08684); experiment: CYP450 inhibition kit (drug-drug interaction), 3A4; format: biochemical
T7 construct: purchased BD Gentest (Franklin Lakes, NJ)
T7 sequence (P08684 whole entry): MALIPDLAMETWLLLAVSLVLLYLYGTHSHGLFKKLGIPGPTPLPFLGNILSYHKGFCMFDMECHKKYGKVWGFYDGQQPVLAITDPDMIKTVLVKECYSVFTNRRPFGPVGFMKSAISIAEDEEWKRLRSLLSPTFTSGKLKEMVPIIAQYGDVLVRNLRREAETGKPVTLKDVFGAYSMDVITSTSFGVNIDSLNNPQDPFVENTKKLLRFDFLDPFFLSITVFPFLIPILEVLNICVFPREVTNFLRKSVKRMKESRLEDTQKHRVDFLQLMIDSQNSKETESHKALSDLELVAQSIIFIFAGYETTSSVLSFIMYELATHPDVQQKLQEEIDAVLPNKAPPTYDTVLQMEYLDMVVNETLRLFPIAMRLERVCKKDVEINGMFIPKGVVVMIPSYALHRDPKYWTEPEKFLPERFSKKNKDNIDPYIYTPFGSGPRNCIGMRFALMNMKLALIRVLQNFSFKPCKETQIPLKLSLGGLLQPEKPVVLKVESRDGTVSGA
Procedure: as §9, with “Low” for “Interesting compounds were also submitted for drug-drug interaction and metabolic stability assays. Low”

[18] = D6, read-out: IC90 Pf D6, P. falciparum D6, mefloquine: historical mean +/- SD (n)
[19] = Plasmodium falciparum, TM90C2A, read-out: IC90 Pf C2A
[20] = dog, MDCK-MDR1, 2 h, 5 μM, pH 7.4
[21] = Figure 3, species of microsomes not given
[22] = Plasmodium falciparum, TM90C2A; read-out: IC90 PfC2A

SMILES | IC90 ([1]; W2, read-out: IC90 Pf W2) [µg/mL] | IC90 [2, 18] [µg/mL] | IC90 ([3]; read-out: IC90 Pf C235) [µg/mL] | IC90 [4, 19] [µg/mL] | CC50 [5] [µg/mL] | Papp A→B at 2 h, 5 μM [6] [×10⁻⁶ cm/s] | % recovery (MDCK-MDR1 permeability assay) [7, 20] [%] | HL in Microsomes [8, 21] [min] | CC50 [9] [µM] | IC90 [4, 22] [µM] | further results
OC(CNCC12CCC(C1)NC2)c1cc(C(F)(F)F)nc2c(C(F)(F)F)cccc12 (stereo not drawn) [WR319535/581] | 0.275 (≈ 0.635 µM) | 0.075 (≈ 0.173 µM) | 0.26 (≈ 0.6 µM) | 0.251 | 4.11 (≈ 9.48 µM) | 2 | 52 | > 60 |  |  | 
OC(c1cc(C(F)(F)F)nc2c(C(F)(F)F)cccc12)C1CCCCN1 (stereo not drawn) [Mefloquine, mefloquine, reference compound] | 0.0062 ± 0.0028 (≈ 0.0164 µM) | 0.017 ± 0.011 (≈ 0.0449 µM) | 0.052 ± 0.03 (≈ 0.137 µM) | 0.074 ± 0.032 | 3.72 ± 1.51 (≈ 9.84 µM) |  |  |  | 41 |  | IC90 ([4]; Plasmodium falciparum, TM90C2A, read-out: IC90 PfC2A): 0.171 µM; inhibition at 0.2 µM [10]: 62%; inhibition at 0.2 µM [11]: 4%; PappA-B MDCK-MDR1 ([7]; apical (A-B) direction, 5.0 μM, 10 μM cyclosporin A, 2 h, mefloquine average of n = 3): 9.4 10^-6 cm/s; % recovery (MDCK-MDR1 permeability assay) ([7]; compound recoverable at end of assay): < 40%; HL in Microsomes ([8]; 1 μM, pH 7.4): > 60 min; half-life at 1 μM ([8]; mouse, microsomes, pH 7.4): > 60 min
OC(CNCC1CCCN1)c1cc(C(F)(F)F)nc2c(C(F)(F)F)cccc12 (stereo not drawn) [WR308621] | 0.046 (≈ 0.113 µM) | 0.092 (≈ 0.226 µM) | 0.1 (≈ 0.245 µM) | 0.198 | 20.3 (≈ 49.8 µM) | < 3.3 | 28 | > 60 |  |  | 
CCC(C)CNCC(O)c1cc(C(F)(F)F)nc2c(C(F)(F)F)cccc12 (stereo not drawn) [WR308387] | 0.0012 (≈ 0.00304 µM) | 0.007 (≈ 0.0178 µM) | 0.012 (≈ 0.0304 µM) | 0.011 |  | 18 | 42 |  | > 120 | 0.026 | IC90 ([1]; W2, read-out: PF W2 IC90): 0.00119 µg/mL (≈ 0.00302 µM); IC90 ([2]; D6, read-out: PF D6 IC90, P. falciparum D6): 0.00695 µg/mL (≈ 0.0176 µM); IC90 ([3]; read-out: PF C235 IC90): 0.0116 µg/mL (≈ 0.0293 µM); IC90 ([4]; Plasmodium falciparum, TM90C2A, read-out: PF C2A IC90): 0.011 µg/mL; CSI (C2A/W2) ([4]; ratio of IC90 C2A to IC90 W2): 9.2; IC50 [12]: 20.8 µM; half-life at 1 μM ([8]; pH 7.4, mouse liver microsomes, 1 μM, read-out: Half-life in mouse micro): 20 min; IC50 [13]: 2.1 µM; IC50 [14]: 11 µM; IC50 [15]: 7 µM; IC50 [16]: 2 µM; IC50 [17]: > 40 µM
CCCCNCC(O)c1cc(C(F)(F)F)nc2c(C(F)(F)F)cccc12 (racemic) [WR177000] | 0.0017 (≈ 0.00447 µM) | 0.0067 (≈ 0.0176 µM) | 0.0089 (≈ 0.0234 µM) | 0.0123 | 2.78 (≈ 7.31 µM) | 25.4 | 58 | 37 |  | 0.032 | 
CCCCNCCNCC(O)c1cc(C(F)(F)F)nc2c(C(F)(F)F)cccc12 (stereo not drawn) [WR318746] | 0.09 (≈ 0.213 µM) | 0.155 (≈ 0.366 µM) | 0.283 (≈ 0.668 µM) | 0.319 | 28.5 (≈ 67.4 µM) | 5.9 | 42 | > 60 |  |  | 
